Results from patent publication US20240165200A1, “CATH2 AND DERIVATIVES FOR INHIBITING STREPTOCOCCUS SUIS” (Universiteit Utrecht Holding B.V., priority 2021, published 2024).
In brackets after ≈: the same amount, converted by molar mass. Where a SMILES comes first, the peptide text is derived from it. [ ]: non-standard residue; d: D form.

Legend:
murine BMDMs = format: cell-based, mouse
Procedure: FIG. 2: Peptide titration on BMDM and BMDCs for cytotoxicity and expression of cell markers. Mouse BMDM (A, C, E, G) and BMDCs (B, D, F, H) were cultured for 6 days with […]. Different concentrations were added at day 6 (A, B, E, F) or the cells were primed with different concentrations peptides at day 1-2 (C, D, G, H). At day 7, cell viability was tested using WST-1 reagent, with no-peptide-control set to 100% viability (A-D) and cells were analyzed by flowcytometry for cell marker expression (E-H). Results are depicted as mean +/−S.E.M. (n=3).
Bone marrow cells, isolated from the femur and tibia of both hindlegs, were stored in FCS/10% DMSO in liquid nitrogen. Cells were grown at a concentration of 5×10^5 cells mL^−1 in RPMI-1640 without phenol red (Thermo Fisher Scientific, MA, USA) supplemented with 10% fetal calf serum (FCS) (Corning, NY, USA) and 1% Penicillin/streptomycin (Thermo Fisher Scientific). […] Cells were stained with antibodies (table 1) for 20 minutes, washed and measured using the BD FACSCanto-II (BD bioscience) and analyzed with FlowJo software (Ashland, OR, USA).
WST-1 reagent (roche) was used for cell viability of BMDCs and BMDM as well as for cell activity of activated splenocytes. […] After 30-60 minutes, colorimetric changes were measured at 450 nm using a FLUOstar Omega microplate reader (BMG Labtech GmbH, Ortenberg, Germany). […]

[1] = tested on: 4 different S. suis serotype 2 strains; experiment: Colony count assay (MBC), summary over the four strains; format: cell-based, Streptococcus suis; details: four sub-strains, RPMI+10% FCS medium
Procedure: FIG. 1: D-CATH2 and its derivatives efficiently kills several S. suis type2 strains in both THB and RPMI+FCS. Antibacterial activity of D-CATH2 and its derivatives against 10^6 CFU ml^−1 S. suis type 2 strains (P1/7, D282, 5735, and OV625) was tested using a colony count assay in both THB medium (A) and RPMI+FCS (B). 2 log CFU mL^−1 was set as detection limit for the experiment. Data is plotted as average +/−SEM (N=3-4).
S. suis Serotype 2 strains P1/7, D282, S735, and OV625 were grown into mid-logarithmic phase for 3-4 hours at 37° C. in THB, after which bacteria were centrifuged at 1200×g for 10 minutes at 4° C. and resuspended in fresh THB. Concentration was determined by measuring the OD value at 620 nm with an OD of 0.1 is 1×10^8 colony forming units (CFU) mL^−1. 10^6 CFU mL^−1 S suis was mixed with different concentrations of D-CATH and derivatives (0.63−40 μM) and left for 3 hours at 37° C. Ten-fold dilutions were prepared and spread in Tryptan Soy agar (TSA) plates containing 5% (vol/vol) defibrinated sheep blood (Oxoid) and colonies were allowed to grow for 48 hours. Minimal Bactericidal Concentration (MBC) was defined as ≤100 CFU mL^−1 (2 logCFU mL^−1), the detection limit of the assay.

[2] = Isothermal titration calorimetry (ITC) of peptide binding to LTA-SA; parameters: species or system S. aureus; details: 200 μM peptide titrated into LTA-SA, 37° C., dPBS; read-out: Kd (dissociation coefficient)
Procedure: Thermodynamic binding capacity of 200 μM D-CATH2 (A), DC(1-21) (B), and DC(4-21) (C) to 200 μM LTA-SA was measured using isothermal titration calorimetry (ITC). Every 300 seconds, 1.99 μl peptide solution was titrated into 164 μl LTA solution. The corrected heat rate (μJ sec^−1) is plotted (top panel) and normalized integrated heat was plotted against the molar ratio between LTA and the peptide (lower panel). Experiments (N=3) were averaged before plotting and fitting an independent model. The corrected heat rate of D-CATH2, DC(1-21), and DC(4-21) is depicted for comparison (D).
The interaction between the D-CATH2 peptides and LTA-SA was tested using isothermal titration calorimetry (ITC). All ITC experiments were performed on a Low Volume NanoITC (TA instruments-Waters LLC, New Castle, USA). 800 μM of LTA-SA or peptide solution was prepared in MilliQ after which a 4-fold dilution in dPBS (Gibco) was made. The chamber was filled with 164 μl LTA-SA and the peptide was loaded in the syringe. Every 300 seconds, 1.99 μL peptide was titrated into the chamber at 37° C. Data was analyzed using the Nano Analyze software (TA instruments-Waters LLC). The data of three experiments was averaged and an independent model was used to determine the peptide-LTA interaction.

[3] = tested on: murine macrophage cell-line; details: biological form of CATH2; cited from earlier work

CC[C@@H](C)[C@@H](NC(=O)[C@@H](CCCCN)NC(=O)[C@@H](CCCNC(=N)N)NC(=O)[C@@H](CC(C)C)NC(=O)[C@@H](Cc1ccccc1)NC(=O)[C@@H](CCCNC(=N)N)NC(=O)CNC(=O)[C@@H](Cc1ccccc1)NC(=O)[C@H](N)CCCNC(=N)N)C(=O)N[C@H](CCCNC(=N)N)C(=O)N[C@H](CCCNC(=N)N)C(=O)N[C@H](Cc1ccccc1)C(=O)N[C@H](CCCNC(=N)N)C(=O)N1CCC[C@@H]1C(=O)N[C@H](CCCCN)C(=O)N[C@@H](C(=O)N[C@@H](C(=O)N[C@@H](C(=O)N[C@@H](C(=O)N[C@@H](C(=O)N[C@H](CCC(N)=O)C(=O)NCC(=O)N[C@H](CO)C(=O)N[C@H](C)C(=O)N[C@H](CCCNC(=N)N)C(=O)N[C@H](Cc1ccccc1)C(N)=O)[C@H](C)CC)[C@H](C)O)[C@H](C)CC)[C@H](C)O)C(C)C [D-CATH2]
cell viability of BMDMs (murine BMDMs): relative sensitive

CC[C@@H](C)[C@@H](NC(=O)[C@@H](CCCCN)NC(=O)[C@@H](CCCNC(=N)N)NC(=O)[C@@H](CC(C)C)NC(=O)[C@@H](Cc1ccccc1)NC(=O)[C@@H](CCCNC(=N)N)NC(=O)CNC(=O)[C@@H](Cc1ccccc1)NC(=O)[C@H](N)CCCNC(=N)N)C(=O)N[C@H](CCCNC(=N)N)C(=O)N[C@H](CCCNC(=N)N)C(=O)N[C@H](Cc1ccccc1)C(=O)N[C@H](CCCNC(=N)N)C(=O)N1CCC[C@@H]1C(=O)N[C@H](CCCCN)C(=O)N[C@@H](C(=O)N[C@@H](C(=O)N[C@@H](C(=O)N[C@@H](C(=O)N[C@@H](C(=O)N[C@H](CCC(N)=O)C(N)=O)[C@H](C)CC)[C@H](C)O)[C@H](C)CC)[C@H](C)O)C(C)C [DC(1-21)]
cell viability of BMDMs (murine BMDMs): especially

CC[C@@H](C)[C@@H](NC(=O)[C@@H](CCCCN)NC(=O)[C@@H](CCCNC(=N)N)NC(=O)[C@@H](CC(C)C)NC(=O)[C@@H](Cc1ccccc1)NC(=O)[C@H](N)CCCNC(=N)N)C(=O)N[C@H](CCCNC(=N)N)C(=O)N[C@H](CCCNC(=N)N)C(=O)N[C@H](Cc1ccccc1)C(=O)N[C@H](CCCNC(=N)N)C(=O)N1CCC[C@@H]1C(=O)N[C@H](CCCCN)C(=O)N[C@@H](C(=O)N[C@@H](C(=O)N[C@@H](C(=O)N[C@@H](C(=O)N[C@@H](C(=O)N[C@H](CCC(N)=O)C(N)=O)[C@H](C)CC)[C@H](C)O)[C@H](C)CC)[C@H](C)O)C(C)C [DC(4-21), RFLRKIRRFRPKVTITIQ-NH2] (H-[dR][dF][dL][dR][dK][dI][dR][dR][dF][dR][dP][dK][dV][dT][dI][dT][dI][dQ]-NH2; N-terminus assumed)
MBC [1]: 2.5 µM (≈ 5.82 µg/mL) | Kd [2]: 2120 nM

RFGRFLRKIRRFRPKVTITIQGSARFG [CATH2, chicken cathelicidin-2, 27 amino acid C-terminal peptide]
LPS and LTA activation [3]: inhibit
